Assay results taken from PMC10458721, “Monitoring Both Extended and Tryptic Forms of Stable Isotope-Labeled Standard Peptides Provides an Internal Quality Control of Proteolytic Digestion in Targeted Mass Spectrometry-Based Assays” (Molecular & Cellular Proteomics : MCP, 2023).

Legend:
trypsin [1] = target: T1, trypsin (Sus scrofa, UniProt P00761); assay: Apparent first order hydrolysis of extended SIS peptides (kobs, half-life, time to 75% and 95% hydrolyzed); type: in vitro ADME; set-up: purchased Promega V5111; conditions: for Observed rate constant (slope of linear regression of Ln(A,t/A,0) over time): trypsin digestion time course, direct-MRM
T1 sequence (P00761 9-231): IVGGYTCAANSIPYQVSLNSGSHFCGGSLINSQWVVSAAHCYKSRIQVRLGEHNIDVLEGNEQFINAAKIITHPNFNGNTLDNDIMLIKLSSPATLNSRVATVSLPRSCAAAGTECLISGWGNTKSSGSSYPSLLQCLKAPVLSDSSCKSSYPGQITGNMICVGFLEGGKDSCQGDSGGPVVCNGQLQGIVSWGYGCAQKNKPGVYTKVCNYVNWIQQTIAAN
Experimental: By plotting the natural log as a function of time, or ln(At/A0)∼t, with At and A0 reported as the average peak area of hE from process triplicates at time t and time zero, respectively, a linear fit was calculated and kobs was reported as the slope of the fit (supplemental Table S9). […] Hydrolysis or disappearance of extended SIS peptides across both assays were categorized as fast, medium, slow, or pre-digested by Lys-C (not included in plot) by rate constants calculated using apparent first order kinetics. […] MRM, multiple reaction monitoring; SIS, stable isotope-labeled standard.

trypsin [2] = target: T1, trypsin; assay: hE/hT QC metric of proteolytic digestion (pass/marginal/fail); set-up: purchased Promega V5111; conditions: QC panel SIS pairs, 0 to 21 h, three replicates, versus 16-h control digestion
Excerpt: We next compared the utility of the peak area of hT and the ratio of hE/hT as a QC metric to monitor trypsin digestion efficiency. Measurements from the triplicate control digestion samples were used to define the acceptability criteria for the QC metric. A QC pass was defined as an hT value or hE/hT ratio within 2 SD of the median. A marginal QC was defined as a value that was less than three SD but more than two SD greater than the median. Finally, a QC failure was defined as a value that was three SDs greater than the median. We then tested the ability of the QC metric, as defined by either the hE/hT ratio or hT alone, to detect a loss of assay sensitivity, defined as the endogenous peak area in the stressed condition as a fraction of the control. There were 23 targets (15 for the direct-MRM assay, 8 for the immuno-MRM assay) that had endogenous measurements above the LLOQ in the control digestions and also had extended peptides that were not categorized as ‘pre-digested’.
Finally, to ensure the hE/hT QC metric was not subject to day-to-day variability, we excluded any SIS pairs that failed QC across our replicate, 16-h control digestions (one in the stressor experiment and one in the time course experiment). […]

[3] = fit with R2 > 0.80, min 3-4 time points
[4] = fit with R2 > 0.80, time points chosen to maximize R2 (minimum 4 points)

Row | Observed rate constant (slope of linear regression of Ln(A,t/A,0) over time) (trypsin [1]; [3]) | Observed rate constant (slope of linear regression of Ln(A,t/A,0) over time) (trypsin [1]; [4]) | Substance | also measured
1 | – | – | AATC[+57]SKYTELPYGREDVLKE | Half-life of extended SIS peptide (trypsin [1]; direct-MRM trypsin digestion time course, from observed rate constant): 31.34 min
2 | -0.0217 min⁻¹ | – | DEVIKEVQEFYKDTYNK [CD9_P21926_1751] | –
3 | -0.0308 min⁻¹ | – | DSFRFGAPPHAGGGIGLERVTML [DARS_P14868_1752] | –
4 | -0.1677 min⁻¹ | – | DTKSDIIFFQRSVP [IL18_Q14116_1752] | –
5 | -0.0481 min⁻¹ | – | EEMEKVLAGETLSVNDPPDVLDRQK [ILF3_Q12906_GO] | –
6 | – | – | GEEDNSLSVR[+10] | hE/hT QC result in trypsin digestion time course (trypsin [2]): inconsistent QC results across the three replicates prior to the last time point
7 | – | -0.0388 min⁻¹ | IERTFHVETPEEREEW [AKT1_P31749_1751] | –
8 | – | -0.0813 min⁻¹ | IQVGRNIIHGSDSVESAEKEIGLWF [NME1_P15531_1753] | –
9 | – | -0.0473 min⁻¹ | KHRTGDEITYQC[+57]RNGF [CFH_P08603_1752] | –
10 | – | – | YTELPYGR[+10] | hE/hT QC result in trypsin digestion time course (trypsin [2]): pass QC, then fail (or marginally pass) the QC at the latest time point
